Experimental data as given in patent publication US20070027143A1, “Novel substituted 2,3-benzodiazepine derivatives” (priority 2003, published 2007).

Structure (SMILES)	melting point
Cc1nnc(N2N=C(c3ccc(N)cc3)c3cc(Cl)ccc3CC2C)s1 (racemic) [Example 94, (±)-1-(4-Aminophenyl)-8-chloro-4-methyl-3-(5-methyl-1,3,4-thiadiazol-2-yl)-4,5-dihydro-3H-[2,3]benzodiazepine]	131 to 133 °C
Cc1nnc(N2N=C(c3cccc(N)c3)c3cc4c(cc3CC2C)OCO4)s1 (racemic) [Example 97, (±)-5-(3-Aminophenyl)-8-methyl-7-(5-methyl-1,3,4-thiadiazol-2-yl)-8,9-dihydro-7H-1,3-dioxolo-[4,5-h][2,3]benzodiazepine]	197 to 198 °C
COc1ccc2c(c1)C(c1ccc(N)cc1)=NN(c1nnc(C)s1)C(C)C2 (racemic) [Example 98, (±)-1-(4-Aminophenyl)-4-methyl-3-(5-methyl-1,3,4-thiadiazol-2-yl)-8-methoxy-4,5-dihydro-3H-[2,3]benzodiazepine]	180 to 184 °C
CC1Cc2cc3c(cc2C(c2ccc(N)cc2)=NN1C1=NNC(=O)CS1)OCO3 (racemic) [Example 100, (±)-5-(4-Aminophenyl)-7-(5,6-dihydro-5-oxo-4H-1,3,4-thiadiazin-2-yl)-8-methyl-8,9-dihydro-7H-1,3-dioxolo[4,5-h][2,3]benzodiazepine]	172 to 176 °C
CC1Cc2cc3c(cc2C(c2ccc(N)cc2)=NN1c1nnn[nH]1)OCO3 (racemic) [Example 107, (±)-5-(4-Aminophenyl)-8-methyl-7-(5-tetrazolyl)-8,9-dihydro-7H-1,3-dioxolo[4,5-h][2,3]benzodiazepine]	> 360 °C
CC1Cc2cc3c(cc2C(c2ccc(N)cc2)=NN1c1ncccn1)OCO3 (racemic) [Example 111, (±)-5-(4-Aminophenyl)-8-methyl-7-(2-pyrimidinyl)-8,9-dihydro-7H-1,3-dioxolo[4,5-h][2,3]benzodiazepine]	233 to 235 °C
CC1Cc2cc3c(cc2C(c2ccc(N)cc2)=NN1c1ccc(Cl)nn1)OCO3 (racemic) [Example 112, (±)-5-(4-Aminophenyl)-7-(3-chloropyridazin-6-yl)-8-methyl-8,9-dihydro-7H-1,3-dioxolo-[4,5-h][2,3]benzodiazepine]	164 to 166 °C
CC1Cc2cc3c(cc2C(c2ccc(N)cc2)=NN1C1N=CNN1)OCO3 (racemic) [Example 113, (±)-5-(4-Aminophenyl)-8-methyl-7-(1H(2H)1,2,4-triazol-3-yl)-8,9-dihydro-7H-1,3-dioxolo-[4,5-h][2,3]benzodiazepine]	178 to 181 °C
CC1=NC(N2N=C(c3ccc(N)cc3)c3cc4c(cc3CC2C)OCO4)NN1 (racemic) [Example 114, (±)-5-(4-Aminophenyl)-8-methyl-7-(5-methyl-1H(2H)-1,2,4-triazol-3-yl)-8,9-dihydro-7H-1,3-dioxolo-[4,5-h][2,3]benzodiazepine]	166 to 169 °C

Next, values leading:

melting point	Structure (SMILES)
140 to 144 °C	Cc1nnc(N2N=C(c3ccc(N)c(C)c3)c3cc4c(cc3CC2C)OCO4)s1 (racemic) [Example 95, (±)-5-(4-Amino-3-methylphenyl)-8-methyl-7-(5-methyl-1,3,4-thiadiazol-2-yl)-8,9-dihydro-7H-1,3-dioxolo-[4,5-h][2,3]benzodiazepine]
154 to 157 °C	CC1=NN=C(N2N=C(c3ccc(N)cc3)c3cc4c(cc3CC2C)OCO4)SC1 (racemic) [Example 99, (±)-5-(4-Aminophenyl)-8-methyl-7-(5-methyl-6H-1,3,4-thiadiazin-2-yl)-8,9-dihydro-7H-1,3-dioxolo-[4,5-h][2,3]benzodiazepine]
263 to 264 °C	CC1Cc2cc3c(cc2C(c2ccc(N)cc2)=NN1c1n[nH]c(=O)s1)OCO3 (racemic) [Example 101, (±)-5-(4-Aminophenyl)-8-methyl-7-(5-oxo-4,5-dihydro-1,3,4-thiadiazol-2-yl)-8,9-dihydro-7H-1,3-dioxolo-[4,5-h][2,3]benzodiazepine]
213 °C	CC1Cc2cc3c(cc2C(c2ccc(N)cc2)=NN1c1nc(=O)n(C)s1)OCO3 (racemic) [Example 103, (±)-5-(4-Aminophenyl)-8-methyl-7-(2-methyl-3-oxo-2,3-dihydro-1,2,4-thiadiazol-5-yl)-8,9-dihydro-7H-1,3-dioxolo[4,5-h][2,3]benzodiazepine]
> 260 °C (dec.)	CC1Cc2cc3c(cc2C(c2ccc(N)cc2)=NN1c1nc(C(=O)O)cs1)OCO3 (racemic) [Example 106, (±)-5-(4-Aminophenyl)-7-(4-carboxy-thiazol-2-yl)-8-methyl-8,9-dihydro-7H-1,3-dioxolo-[4,5-h][2,3]benzodiazepine]
130 to 135 °C	Cc1nc(N2N=C(c3ccc(N)cc3)c3cc4c(cc3CC2C)OCO4)no1 (racemic) [Example 109, (±)-5-(4-Aminophenyl)-8-methyl-7-(5-methyl-1,2,4-oxadiazol-3-yl)-8,9-dihydro-7H-1,3-dioxolo-[4,5-h][2,3]benzodiazepine]
132 to 135 °C	Cc1nc(N2N=C(c3ccc(N)cc3)c3cc4c(cc3CC2C)OCO4)cs1 (racemic) [Example 110, (±)-5-(4-Aminophenyl)-8-methyl-7-(2-methyl-thiazol-4-yl)-8,9-dihydro-7H-1,3-dioxolo-[4,5-h][2,3]benzodiazepine]
182 to 183 °C	CC1Cc2cc3c(cc2C(c2ccc(N)cc2)=NN1c1ncnn1C)OCO3 (racemic) [Example 115, (±)-5-(4-Aminophenyl)-8-methyl-7-(2-methyl-2H-1,2,4-triazol-3-yl)-8,9-dihydro-7H-1,3-dioxolo-[4,5-h][2,3]benzodiazepine]
165 to 168 °C	CC1Cc2cc3c(cc2C(c2ccc(N)cc2)=NN1c1ncn(C)n1)OCO3 (racemic) [Example 116, (±)-5-(4-Aminophenyl)-8-methyl-7-(1-methyl-1H-1,2,4-triazol-3-yl)-8,9-dihydro-7H-1,3-dioxolo-[4,5-h][2,3]benzodiazepine]
185 to 187 °C	Cc1nc(N2N=C(c3ccc(N)cc3)c3cc4c(cc3CC2C)OCO4)n(C)n1 (racemic) [Example 117, (±)-5-(4-Aminophenyl)-8-methyl-7-(2,5-dimethyl-2H-1,2,4-triazol-3-yl)-8,9-dihydro-7H-1,3-dioxolo-[4,5-h][2,3]benzodiazepine]
176 to 179 °C	CC(=O)Nc1ccc(C2=NN(c3ncc(C)s3)C(C)Cc3cc4c(cc32)OCO4)cc1 (racemic) [Example 120, (±)-5-(4-Acetylaminophenyl)-8-methyl-7-(5-methyl-thiazol-2-yl)-8,9-dihydro-7H-1,3-dioxolo-[4,5-h][2,3]benzodiazepine]
211 to 213 °C	CC(=O)Nc1ccc(C2=NN(C3=NCCS3)C(C)Cc3cc4c(cc32)OCO4)cc1 (racemic) [Example 122, (±)-5-(4-Acetylaminophenyl)-7-(4,5-dihydro-thiazol-2-yl)-8-methyl-8,9-dihydro-7H-1,3-dioxolo-[4,5-h][2,3]benzodiazepine]
124 to 128 °C	CC(=O)Nc1ccc(C2=NN(C3=NCCO3)C(C)Cc3cc4c(cc32)OCO4)cc1 (racemic) [Example 127, (±)-5-(4-Acetylaminophenyl)-7-(4,5-dihydro-oxazol-2-yl)-8-methyl-8,9-dihydro-7H-1,3-dioxolo-[4,5-h][2,3]benzodiazepine]
